Source: ChEMBL document CHEMBL5365421, “Design, synthesis, antitumor activity, and molecular dynamics simulations of novel sphingosine kinase 2 inhibitors” (Bioorg Med Chem, 2023)

test system: MCF7; assay: Antiproliferative activity against human MCF7 cells assessed as cell growth inhibition measured after 48 hrs by MTT assay; format: functional, cell-based; details: MCF7, 48 h

SMILES | IC50 [µM]
NC(=O)[C@H]1CCCN1C(=O)c1ccc(OCc2noc(-c3ccc(Cl)cc3)n2)cc1 | 7.63
NC(=O)[C@@H]1CCCN1Cc1ccc(COc2cccc(OCc3ccccc3)c2)cc1 | 21.5
NC(=O)CNC(=O)c1ccc(OCc2noc(-c3ccc(C(F)(F)F)cc3)n2)cc1 | 39.7
NC(=O)[C@@H]1CCCN1C(=O)c1ccc(OCc2noc(-c3ccc(Cl)cc3)n2)cc1 | > 100
O=C(NCCO)c1ccc(OCc2noc(-c3ccc(C(F)(F)F)cc3)n2)cc1 | 58
O=C(c1ccc(COc2cccc(OCc3ccccc3)c2)cc1)N1CCC[C@H]1CO | > 100
O=C(NCCO)c1ccc(COc2cccc(OCc3ccccc3)c2)cc1 | 34.7
OCC1CCCN1Cc1ccc(COc2cccc(OCc3ccccc3)c2)cc1 (single isomer, unassigned) | > 100
NC(=O)CNC(=O)c1ccc(OCc2noc(-c3ccc(Cl)cc3)n2)cc1 | 55.4
NC(=O)CNC(=O)c1ccc(COc2cccc(OCc3ccccc3)c2)cc1 | 20.3
O=C(c1ccc(OCc2noc(-c3ccc(C(F)(F)F)cc3)n2)cc1)N1CCC[C@H]1CO | 51.9
NCCNC(=O)c1ccc(COc2cccc(OCc3ccccc3)c2)cc1 | 53.5
NCCNC(=O)c1ccc(OCc2noc(-c3ccc(C(F)(F)F)cc3)n2)cc1 | 39.6

target: Sphingosine kinase 1 (Homo sapiens, UniProt Q9NYA1); assay: Inhibition of SphK1 (unknown origin) using D-Sph as substrate incubated for 40 mins by ADP-Glo Plus luminescence kinase assay; details: not given
Sequence (Q9NYA1 whole entry): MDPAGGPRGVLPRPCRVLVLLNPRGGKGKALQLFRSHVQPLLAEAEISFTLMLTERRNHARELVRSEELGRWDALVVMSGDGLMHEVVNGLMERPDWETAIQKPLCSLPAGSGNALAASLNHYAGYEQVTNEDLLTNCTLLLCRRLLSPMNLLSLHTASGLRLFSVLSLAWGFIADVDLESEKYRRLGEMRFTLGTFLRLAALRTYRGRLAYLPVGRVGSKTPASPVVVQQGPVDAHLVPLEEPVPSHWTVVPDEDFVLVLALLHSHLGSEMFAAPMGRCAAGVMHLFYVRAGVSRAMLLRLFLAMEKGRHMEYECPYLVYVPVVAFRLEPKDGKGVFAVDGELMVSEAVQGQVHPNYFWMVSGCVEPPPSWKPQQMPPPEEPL

SMILES | IC50 [µM]
O=C(NCCO)c1ccc(COc2cccc(OCc3ccccc3)c2)cc1 | 35.6
OCC1CCCN1Cc1ccc(COc2cccc(OCc3ccccc3)c2)cc1 (single isomer, unassigned) | 0.446

test system: MGC-803; assay: Antiproliferative activity against human MGC-803 cells assessed as cell growth inhibition measured after 48 hrs by MTT assay; format: functional, cell-based; details: MGC-803, 48 h

SMILES | IC50 [µM]
NC(=O)[C@H]1CCCN1C(=O)c1ccc(OCc2noc(-c3ccc(Cl)cc3)n2)cc1 | 20.2
NC(=O)[C@@H]1CCCN1Cc1ccc(COc2cccc(OCc3ccccc3)c2)cc1 | 63.6
NC(=O)CNC(=O)c1ccc(OCc2noc(-c3ccc(C(F)(F)F)cc3)n2)cc1 | 10.9
NC(=O)[C@@H]1CCCN1C(=O)c1ccc(OCc2noc(-c3ccc(Cl)cc3)n2)cc1 | 40.6
O=C(NCCO)c1ccc(OCc2noc(-c3ccc(C(F)(F)F)cc3)n2)cc1 | 26.1
O=C(c1ccc(COc2cccc(OCc3ccccc3)c2)cc1)N1CCC[C@H]1CO | > 79.8
O=C(NCCO)c1ccc(COc2cccc(OCc3ccccc3)c2)cc1 | 37.7
OCC1CCCN1Cc1ccc(COc2cccc(OCc3ccccc3)c2)cc1 (single isomer, unassigned) | 15.7
NC(=O)CNC(=O)c1ccc(OCc2noc(-c3ccc(Cl)cc3)n2)cc1 | 29.8
NC(=O)CNC(=O)c1ccc(COc2cccc(OCc3ccccc3)c2)cc1 | 33.8
O=C(c1ccc(OCc2noc(-c3ccc(C(F)(F)F)cc3)n2)cc1)N1CCC[C@H]1CO | 43
NCCNC(=O)c1ccc(COc2cccc(OCc3ccccc3)c2)cc1 | 25.1
NCCNC(=O)c1ccc(OCc2noc(-c3ccc(C(F)(F)F)cc3)n2)cc1 | 40.8

test system: U-937; assay: Antiproliferative activity against human U-937 cells assessed as cell growth inhibition measured after 48 hrs by MTT assay; format: functional, cell-based; details: U-937, 48 h

SMILES | IC50 [µM]
NC(=O)[C@H]1CCCN1C(=O)c1ccc(OCc2noc(-c3ccc(Cl)cc3)n2)cc1 | 47.8
NC(=O)[C@@H]1CCCN1Cc1ccc(COc2cccc(OCc3ccccc3)c2)cc1 | 43.3
NC(=O)CNC(=O)c1ccc(OCc2noc(-c3ccc(C(F)(F)F)cc3)n2)cc1 | 8.44
NC(=O)[C@@H]1CCCN1C(=O)c1ccc(OCc2noc(-c3ccc(Cl)cc3)n2)cc1 | 31.2
O=C(NCCO)c1ccc(OCc2noc(-c3ccc(C(F)(F)F)cc3)n2)cc1 | 68.9
O=C(c1ccc(COc2cccc(OCc3ccccc3)c2)cc1)N1CCC[C@H]1CO | 29.9
O=C(NCCO)c1ccc(COc2cccc(OCc3ccccc3)c2)cc1 | 34.7
OCC1CCCN1Cc1ccc(COc2cccc(OCc3ccccc3)c2)cc1 (single isomer, unassigned) | > 80.2
NC(=O)CNC(=O)c1ccc(OCc2noc(-c3ccc(Cl)cc3)n2)cc1 | 10
NC(=O)CNC(=O)c1ccc(COc2cccc(OCc3ccccc3)c2)cc1 | 32.7
O=C(c1ccc(OCc2noc(-c3ccc(C(F)(F)F)cc3)n2)cc1)N1CCC[C@H]1CO | 29.4
NCCNC(=O)c1ccc(COc2cccc(OCc3ccccc3)c2)cc1 | 51.4
NCCNC(=O)c1ccc(OCc2noc(-c3ccc(C(F)(F)F)cc3)n2)cc1 | 32.9

target: T1, Sphingosine kinase 2 (Homo sapiens, UniProt Q9NRA0); assay: Inhibition of SphK2 (unknown origin) using NBD-Sph as substrate by fluorescent plate reader analysis; details: not given
T1 sequence (Q9NRA0 whole entry): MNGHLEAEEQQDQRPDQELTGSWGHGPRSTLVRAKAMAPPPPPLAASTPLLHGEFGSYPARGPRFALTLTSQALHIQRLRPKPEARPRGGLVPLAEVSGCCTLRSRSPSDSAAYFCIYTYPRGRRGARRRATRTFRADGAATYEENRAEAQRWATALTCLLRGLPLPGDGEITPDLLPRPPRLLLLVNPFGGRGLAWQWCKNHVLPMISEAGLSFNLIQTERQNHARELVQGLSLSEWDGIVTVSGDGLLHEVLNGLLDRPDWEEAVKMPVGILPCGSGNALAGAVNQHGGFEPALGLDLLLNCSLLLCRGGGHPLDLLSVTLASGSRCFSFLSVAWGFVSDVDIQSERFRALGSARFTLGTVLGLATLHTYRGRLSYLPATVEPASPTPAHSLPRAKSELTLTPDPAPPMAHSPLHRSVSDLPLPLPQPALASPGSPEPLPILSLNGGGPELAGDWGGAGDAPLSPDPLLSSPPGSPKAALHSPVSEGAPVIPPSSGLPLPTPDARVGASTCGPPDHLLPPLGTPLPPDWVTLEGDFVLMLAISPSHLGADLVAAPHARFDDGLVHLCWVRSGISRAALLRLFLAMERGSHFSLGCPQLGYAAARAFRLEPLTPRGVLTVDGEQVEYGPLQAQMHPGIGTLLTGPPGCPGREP

SMILES | IC50 [µM]
NC(=O)[C@H]1CCCN1C(=O)c1ccc(OCc2noc(-c3ccc(Cl)cc3)n2)cc1 | > 10
NC(=O)[C@@H]1CCCN1Cc1ccc(COc2cccc(OCc3ccccc3)c2)cc1 | > 10
NC(=O)CNC(=O)c1ccc(OCc2noc(-c3ccc(C(F)(F)F)cc3)n2)cc1 | > 10
NC(=O)[C@@H]1CCCN1C(=O)c1ccc(OCc2noc(-c3ccc(Cl)cc3)n2)cc1 | > 10
O=C(NCCO)c1ccc(OCc2noc(-c3ccc(C(F)(F)F)cc3)n2)cc1 | 0.0358
O=C(c1ccc(COc2cccc(OCc3ccccc3)c2)cc1)N1CCC[C@H]1CO | > 10
CCCCCOc1ccc2cc(-c3noc([C@@H]4[C@@H](O)CCN4C(=N)N)n3)ccc2c1 | 4
O=C(NCCO)c1ccc(COc2cccc(OCc3ccccc3)c2)cc1 | 1.25
OCC1CCCN1Cc1ccc(COc2cccc(OCc3ccccc3)c2)cc1 (single isomer, unassigned) | 0.0115
NC(=O)CNC(=O)c1ccc(OCc2noc(-c3ccc(Cl)cc3)n2)cc1 | > 10
NC(=O)CNC(=O)c1ccc(COc2cccc(OCc3ccccc3)c2)cc1 | 0.0115
O=C(c1ccc(OCc2noc(-c3ccc(C(F)(F)F)cc3)n2)cc1)N1CCC[C@H]1CO | 2.46
NCCNC(=O)c1ccc(COc2cccc(OCc3ccccc3)c2)cc1 | 0.0416
NCCNC(=O)c1ccc(OCc2noc(-c3ccc(C(F)(F)F)cc3)n2)cc1 | > 10

target: T2, Sphingosine kinase 2 (Homo sapiens) (UniProt Q9NRA0); assay: Inhibition of SphK2 (unknown origin) using NBD-Sph as substrate at 10 uM by fluorescent plate reader analysis relative to control; details: not given
T2 sequence (whole entry): T1 sequence (Q9NRA0 whole entry)

SMILES | inhibition [%]
NC(=O)[C@H]1CCCN1C(=O)c1ccc(OCc2noc(-c3ccc(Cl)cc3)n2)cc1 | < 50
NC(=O)[C@@H]1CCCN1C(=O)c1ccc(OCc2noc(-c3ccc(Cl)cc3)n2)cc1 | < 50
O=C(c1ccc(COc2cccc(OCc3ccccc3)c2)cc1)N1CCC[C@H]1CO | < 50
NC(=O)CNC(=O)c1ccc(OCc2noc(-c3ccc(Cl)cc3)n2)cc1 | < 50
